Measurements: patent US11325899B2, “Benzofurane and benzothiophene derivatives as PGE2 receptor modulators” (IDORSIA PHARMACEUTICALS LTD, priority 2017, dated 2022)

Target: T1, EP4 receptor (Homo sapiens, UniProt P35408)
T1 construct: BT549 breast cancer cells, express high endogenous EP4 levels and very low EP2 levels; host or cells: BT549 breast cancer cells
Experiment: hEP4 cAMP assay (BT549 breast cancer cells, HTRF cAMP, PGE2 stimulation)
Type: cell-based
Settings: antagonistic activity, PGE2 6 nM (EC80)
Method: The antagonistic activities of the compounds of formula (I) on the EP2 and EP4 receptors are also determined in accordance with the following experimental method.
Human tumor cell lines expressing endogenously either EP4 or EP2 are used and cAMP accumulation in cells upon PGE2 stimulation is monitored. SF295 glioblastoma cells express high endogenous EP2 and no EP4, whereas BT549 breast cancer cells, express high endogenous EP4 levels and very low EP2 levels.
As a detection method for cAMP the HTRF (homogeneous time resolved fluorescence) Cisbio kit (HTRF cAMP dynamic 2 kit 20′000 tests Cisbio Cat. #62AM4PEC) was used, which is based on a competitive immunoassay using a Cryptate-labeled anti-cAMP antibody and d2-labeled cAMP. Native cAMP produced by cells or unlabeled cAMP (for the standard curve) compete with exogenously added d2-labeled cAMP (acceptor) for binding to monoclonal anti-cAMP-Eu3+ Cryptate (donor). A FRET signal (Fluorescence Resonance Energy Transfer) is obtained only if the labeled anti-cAMP antibody binds the d2 labelled cAMP, thus the specific signal (i.e. energy transfer) is inversely proportional to the concentration of cAMP in the standard or sample.
The BT549 cells (NCI/No. 0507282) are detached from culture dishes with a cell dissociation buffer (Invitrogen, 13151-014), and collected in growing medium (GM: RPMI1640 (Invitrogen 21875)/10% FCS, 1% Penicilin/streptomycin). Cells are counted washed and resuspended in assay buffer (AB; HBSS, 20 mM HEPES, 0.2% BSA; 2 mM IBMX). 4′000 cells in 5 μl of AB are seeded per well of a small volume 384 well plate (black with flat bottom, Greiner 784076).
Stock solutions of test compounds are made at a concentration of 10 mM in DMSO, and serially diluted in DMSO to concentrations required for inhibition dose response curves (tested concentration range 30 μM-0.4 nM; 30 μM-0.015 nM or 1 uM-0.01 nM).
PGE2 (Cayman 14010, stock solution: 6 μM in DMSO) is used as agonist at 6 nM final concentration, corresponding to EC80.
Two point five microliters of diluted compounds are transferred into the assay plate. Plate is pre-incubated 45 minutes at room temperature. Subsequently, 2.5 microliters of PGE2 (final conc. 6 nM) are transferred into the assay plate. Plate is incubated 30 minutes at room temperature. Five μl of each donor (anti-cAMP cryptate) and acceptor (cAMP-d2) are added and the plate is incubated another hour at room temperature in the dark and then read using a BMG LABTECH PHERAstar reader (Excitation:337 nm, Emission:620 and 665 nm).
The obtained Delta F(fluorescence) values (665 nm/620 nM) are converted into % cAMP values using the measurements of the cAMP calibrator provided in the kit. For each compound concentration the percentage of cAMP compared to DMSO control value as average±STDEV (each concentration is measured in duplicate) is calculated.
IC50 values and curves are generated with XLfit software (IDBS) using Dose-Response One Site model 203. When compounds were measured multiple times, mean values are given.

T1 sequence (P35408 whole entry): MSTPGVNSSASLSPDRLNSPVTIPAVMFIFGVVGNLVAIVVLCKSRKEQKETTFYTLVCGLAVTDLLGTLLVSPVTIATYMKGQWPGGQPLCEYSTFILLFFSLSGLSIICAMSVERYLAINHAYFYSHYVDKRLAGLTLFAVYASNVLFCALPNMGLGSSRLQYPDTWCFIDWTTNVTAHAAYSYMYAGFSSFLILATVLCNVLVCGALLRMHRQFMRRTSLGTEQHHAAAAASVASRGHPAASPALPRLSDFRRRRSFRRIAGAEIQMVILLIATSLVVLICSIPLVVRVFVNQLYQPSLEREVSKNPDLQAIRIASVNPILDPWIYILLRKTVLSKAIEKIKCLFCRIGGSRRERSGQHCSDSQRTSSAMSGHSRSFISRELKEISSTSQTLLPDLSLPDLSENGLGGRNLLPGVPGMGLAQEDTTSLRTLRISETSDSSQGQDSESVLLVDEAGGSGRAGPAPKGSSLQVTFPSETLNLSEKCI

IC50 [nM] | SMILES
425 | CCOc1cc(-c2cc(NCCc3c(C)sc4c(C)cccc34)ncn2)ccc1C(C)C(=O)O (racemic) [Example 126, rac-2-(4-{6-[2-(2,7-Dimethyl-benzo[b]thiophen-3-yl)-ethylamino]-pyrimidin-4-yl}-2-ethoxy-phenyl)-propionic acid]
479 | COc1ccc(Cl)c2c(CCNc3cc(-c4cc(C)c(C(=O)O)s4)ncn3)c(C)sc12 [Example 5, 5-{6-[2-(4-Chloro-7-methoxy-2-methyl-benzo[b]thiophen-3-yl)-ethylamino]-pyrimidin-4-yl}-3-methyl-thiophene-2-carboxylic acid]
549 | Cc1cc(-c2cc(NCCc3c(C)oc4ccccc34)ncn2)sc1C(=O)O [Example 6, 3-Methyl-5-{6-[2-(2-methyl-benzofuran-3-yl)-ethylamino]-pyrimidin-4-yl}-thiophene-2-carboxylic acid]
624 | CCc1oc2c(C)cc(F)cc2c1CCNc1cc(-c2cc(C)c(C(=O)O)s2)ncn1 [Example 7, 5-{6-[2-(2-Ethyl-5-fluoro-7-methyl-benzofuran-3-yl)-ethylamino]-pyrimidin-4-yl}-3-methyl-thiophene-2-carboxylic acid]
369 | Cc1sc2c(C)cccc2c1CCNc1cc(-c2ccc(C(=O)O)cc2)ncn1 [Example 8, 4-{6-[2-(2,7-Dimethyl-benzo[b]thiophen-3-yl)-ethylamino]-pyrimidin-4-yl}-benzoic acid]
550 | COc1ccc(Cl)c2c(CCNc3cc(-c4ccc(C(=O)O)c(O)c4)ncn3)c(C)sc12 [Example 9, 4-{6-[2-(4-Chloro-7-methoxy-2-methyl-benzo[b]thiophen-3-yl)-ethylamino]-pyrimidin-4-yl}-2-hydroxy-benzoic acid]
860 | Cc1sc2c(C)cc(F)cc2c1CCNc1cc(-c2ccc(C(=O)O)c(O)c2)ncn1 [Example 10, 4-{6-[2-(5-Fluoro-2,7-dimethyl-benzo[b]thiophen-3-yl)-ethylamino]-pyrimidin-4-yl}-2-hydroxy-benzoic acid]
20 | CSc1cc(-c2cc(NCCc3c(C#N)sc4c(C)cc(F)cc34)ncn2)ccc1C(=O)O [Example 12, 4-{6-[2-(2-Cyano-5-fluoro-7-methyl-benzo[b]thiophen-3-yl)-ethylamino]-pyrimidin-4-yl}-2-methylsulfanyl-benzoic acid]
27 | COc1cccc2c(CCNc3cc(-c4ccc(C(=O)O)c(SC)c4)ncn3)c(C#N)sc12 [Example 13, 4-{6-[2-(2-Cyano-7-methoxy-benzo[b]thiophen-3-yl)-ethylamino]-pyrimidin-4-yl}-2-methylsulfanyl-benzoic acid]
42 | CCOc1cc(-c2cc(NCCc3c(C)sc4c(C)cc(F)cc34)ncn2)sc1/C=C/C(=O)O [Example 96, (E)-3-(3-Ethoxy-5-{6-[2-(5-fluoro-2,7-dimethyl-benzo[b]thiophen-3-yl)-ethylamino]-pyrimidin-4-yl}-thiophen-2-yl)-acrylic acid]
105 | CCOc1cc(-c2cc(NCCc3c(C)sc4c(C)cc(F)cc34)ncn2)sc1CCC(=O)O [Example 97, 3-(3-Ethoxy-5-{6-[2-(5-fluoro-2,7-dimethyl-benzo[b]thiophen-3-yl)-ethylamino]-pyrimidin-4-yl}-thiophen-2-yl)-propionic acid]
216 | COc1ccc(Cl)c2c(CCNc3cc(-c4ccc(C(=O)O)c(OC(C)C)c4)ncn3)c(C)sc12 [Example 98, 4-{6-[2-(4-Chloro-7-methoxy-2-methyl-benzo[b]thiophen-3-yl)-ethylamino]-pyrimidin-4-yl}-2-isopropoxy-benzoic acid]
450 | CCCOc1cc(-c2cc(NCCc3c(C)sc4c(C)c(F)ccc34)ncn2)ccc1C(=O)O [Example 99, 4-{6-[2-(6-Fluoro-2,7-dimethyl-benzo[b]thiophen-3-yl)-ethylamino]-pyrimidin-4-yl}-2-propoxy-benzoic acid]
457 | CCCOc1cc(-c2cc(NCCc3c(C)sc4c(C)cc(F)cc34)ncn2)ccc1C(=O)O [Example 100, 4-{6-[2-(5-Fluoro-2,7-dimethyl-benzo[b]thiophen-3-yl)-ethylamino]-pyrimidin-4-yl}-2-propoxy-benzoic acid]
482 | CCCOc1cc(-c2cc(NCCc3c(C)sc4c(OC)ccc(Cl)c34)ncn2)ccc1C(=O)O [Example 101, 4-{6-[2-(4-Chloro-7-methoxy-2-methyl-benzo[b]thiophen-3-yl)-ethylamino]-pyrimidin-4-yl}-2-propoxy-benzoic acid]
867 | CCCOc1cc(-c2cc(NCCc3c(C)sc4c(Cl)ccc(Cl)c34)ncn2)ccc1C(=O)O [Example 102, 4-{6-[2-(4,7-Dichloro-2-methyl-benzo[b]thiophen-3-yl)-ethylamino]-pyrimidin-4-yl}-2-propoxy-benzoic acid]
331 | CCOc1cc(-c2cc(NCCc3c(C)sc4c(C)ccc(F)c34)ncn2)cc(C)c1C(=O)O [Example 103, 2-Ethoxy-4-{6-[2-(4-fluoro-2,7-dimethyl-benzo[b]thiophen-3-yl)-ethylamino]-pyrimidin-4-yl}-6-methyl-benzoic acid]
30 | CCOc1cc(-c2cc(NCCc3c(C#N)sc4c(C)cc(F)cc34)ncn2)ccc1CC(=O)O [Example 104, (4-{6-[2-(2-Cyano-5-fluoro-7-methyl-benzo[b]thiophen-3-yl)-ethylamino]-pyrimidin-4-yl}-2-ethoxy-phenyl)-acetic acid]
125 | CCOc1cc(-c2cc(NCCc3c(C)sc4c(OC)ccc(F)c34)ncn2)ccc1CC(=O)O [Example 105, (2-Ethoxy-4-{6-[2-(4-fluoro-7-methoxy-2-methyl-benzo[b]thiophen-3-yl)-ethylamino]-pyrimidin-4-yl}-phenyl)-acetic acid]
255 | CCOc1cc(-c2cc(NCCc3c(C)sc4c(C)ccc(F)c34)ncn2)ccc1CC(=O)O [Example 107, (2-Ethoxy-4-{6-[2-(4-fluoro-2,7-dimethyl-benzo[b]thiophen-3-yl)-ethylamino]-pyrimidin-4-yl}-phenyl)-acetic acid]
290 | CCOc1cc(-c2cc(NCCc3c(C)sc4c(C)cccc34)ncn2)ccc1CC(=O)O [Example 109, (4-{6-[2-(2,7-Dimethyl-benzo[b]thiophen-3-yl)-ethylamino]-pyrimidin-4-yl}-2-ethoxy-phenyl)-acetic acid]
296 | CCOc1cc(-c2cc(NCCc3c(C)sc4c(C)cc(F)cc34)ncn2)ccc1CC(=O)O [Example 110, (2-Ethoxy-4-{6-[2-(5-fluoro-2,7-dimethyl-benzo[b]thiophen-3-yl)-ethylamino]-pyrimidin-4-yl}-phenyl)-acetic acid]
450 | CCOc1cc(-c2cc(NCCc3c(C)sc4c(C)c(F)ccc34)ncn2)ccc1CC(=O)O [Example 112, (2-Ethoxy-4-{6-[2-(6-fluoro-2,7-dimethyl-benzo[b]thiophen-3-yl)-ethylamino]-pyrimidin-4-yl}-phenyl)-acetic acid]
60 | Cc1sc2c(C)cc(F)cc2c1CCNc1cc(-c2ccc(C(=O)O)c(OC(F)F)c2)ncn1 [Example 115, 2-Difluoromethoxy-4-{6-[2-(5-fluoro-2,7-dimethyl-benzo[b]thiophen-3-yl)-ethylamino]-pyrimidin-4-yl}-benzoic acid]
